Reference: PMC12498411, “Antidepressant-like Properties of a Selenium-Containing Pyridinium Salt Explored through In Vitro, In Vivo, and In Silico Approaches” (ACS Chemical Neuroscience, 2025)

Tested on: male Swiss mice
Assay: Open field test (OFT) before the TST
Type: in vivo, mouse
Protocol: A dosage of 5 mg/kg (intragastric route, i.g., by gavage) was administered to all groups receiving the salts. […] The TST was conducted 30 min following drug administration, with the OFT being performed 4 min prior to the TST.
Following the selection of the most promising salt during screening (Compound 3B), an analysis of the compound’s time-response curve was conducted in the mouse TST. For this purpose, the animals were divided into five groups: (I) control (water; i.g.), (II) the group receiving compound 3B 15 min prior to TST, (III) the group receiving compound 3B 30 min before TST, (IV) the group receiving compound 3B 60 min before TST, and (V) the group receiving compound 3B 120 min before TST. The dosage of salt was standardized at 5 mg/kg (i.g). OFT was conducted 4 min prior to the TST.
After choosing a suitable preadministration time, the dose–response curve of the compound at this fixed time was analyzed. The animals were categorized into […]: I) a control group (administered water; i.g.) and groups II, III, IV and V) receiving compound 3B at doses of 0.5 mg/kg, 1 mg/kg, 2.5 mg/kg, and 5 mg/kg (i.g.), respectively. […] Thirty minutes postadministration, the animals underwent the TST. Four minutes prior to the TST, they underwent the OFT.
The aim of this behavioral test is to assess the locomotion and exploration behavior of the animals using an open field apparatus measuring 30 cm × 30 cm × 15 cm, constructed from plywood with a floor divided into nine quadrants, facilitating free movement for the animals. During the OFT, the animals were positioned in the center of the apparatus and subjected to a 5 min testing period, following the protocol outlined in literature. The number of quadrant crossings and rearings was recorded and quantified during testing phase.

Cc1ccc(C(=O)C[n+]2ccccc2C[Se]c2ccccc2)cc1 [Compound 3B, 1-(2-oxo-2-(p-tolyl)ethyl)-2-((phenylselanyl)methyl)pyridin-1-ium bromide]
OFT locomotor and exploratory activities, time-response experiment (5 mg/kg i.g., 15–120 min): did not affect the locomotor and exploratory activities
OFT number of crossings, dose–response experiment (0.5–5 mg/kg i.g.): no changes were observed
OFT number of rearings, dose–response experiment (3B 0.5–5 mg/kg i.g., fluoxetine 20 mg/kg i.p.): did not impact on the exploratory behavior profile
